# Source: patent US7395112B2, “Method and apparatus for treating tumors using low strength electric fields” (priority 2002, dated 2008)
# Experiments:
# [1] = tested on: CT-26 colon carcinoma; test: LEF with chemotherapy (LEFCT-EC) in mice bearing 5 mm CT-26 tumors; assay type: in vivo, BALB/C mice
# Procedure: Mice: BALB/C male mice were obtained from the breeding colony of Tel-Aviv University, Israel. Mice were used at 8-12 weeks of age. Animal care and experimentation were performed in accordance with the Tel-Aviv University guidelines.
# Tumor: Colon carcinoma tumors were grown in mice with CT-26, a metastatic colon carcinoma cell line induced in a BALB/c mouse by chemical carcinogenesis. Cells were cultured in Dulbecco's modified Eagle's medium (DMEM) supplemented with 100 U/ml penicillin, 100 μg/ml streptomycin, 2 mM L-glutamine; 1 mM sodium pyruvate; 1% non-essential amino acid solution; 10% heat-inactivated fetal calf serum. Cultures were maintained at 37° C. in a humidified incubator with a 5% CO2 atmosphere.
# Tumor cell inoculation: Mice were inoculated intracutaneously with 10^5 CT-26 cells suspended in 100 μL PBS into the low lateral side of the back. Local tumor growth was determined by measuring three mutually orthogonal tumor diameters with a caliper. The volume of tumor was calculated using the formula: Vol=D1×D2×D3×π/6, where D1, D2, D3 are three mutually orthogonal tumor diameters.
# Low-strength electric field stimulation: To subject tumors to LEFs, stainless steel needles were used as electrodes. Tumors 5 mm in diameter (about 65 mm^3) were transfixed by electrode needles, with one cathode in the center of the tumor and three or four peripheral anodes. The electrodes were connected to an electric pulse generator and to an oscilloscope. Pulsed LEFs with a repetition frequency of 500 Hz and a pulse width of 180 μs were applied at 20, 40, 60 and 70 V/cm for a duration 12 min or 20 min. The electric pulses were administered 2-4 min following chemotherapeutic drug administration. Mice were anesthetized 10 min before the procedure.
# Chemotherapeutic agents: Bleomycin (Sigma Israel Chemicals Ltd., Israel; Megapharm Ltd., Israel) was kept at a temperature of 2-8° C., and was dissolved in pyrogen-free PBS to a concentration enabling dosages of 50 U/kg body weight prior to use. BCNU was administered at a dosage of 35 mg/kg body weight, and 5-FU (Abic, Israel) was used at a dose of 100 mg/kg body weight.
# Anesthesia: Mice were anesthetized using an anesthetic cocktail comprising a dose of imalgen at 100 mg/kg body weight and xylazine hydrochloride at 6.25 mg/kg body weight dissolved in PBS injected intraperitoneally in a volume of 0.25 ml per mouse 10 min prior to LEF treatment.
# Statistical analysis: Survival times (Kaplan-Meir test), survival comparisons between groups (Mantel-Cox test), and tumor volume differences between groups were plotted using StatSoft “Statistica” statistical software.
# Effect of LEF duration and strength on potentiation of bleomycin for treatment of colon carcinoma: In order to determine the optimal LEFCT-EC/bleomycin therapy for treatment of colon cancer, mice bearing CT-26 tumors were treated with LEFs of 40 V/cm for 12 min, and 20 V/cm for 12 or 20 min with or without administration of bleomycin, and survival was analyzed.
# [2] = tested on: DA3 mammary adenocarcinoma; test: LEFCT-EC in mice bearing DA3 mammary adenocarcinoma; assay type: in vivo, BALB/c mice
# Procedure: Animals: BALB/c female mice between the ages of 8 to 12 weeks obtained from the breeding colony of Tel-Aviv University, Israel were used in vivo tumor therapy experiments. Animal care and experimentation was carried out in accordance with Tel-Aviv University guidelines.
# Tumor cell line: The highly metastatic, poorly immunogenic mammary adenocarcinoma cell line DA3 (Lopez D M. et al., 1981. J Natl Cancer Inst. 66:191) was used to generate mammary carcinoma tumors in mice. Cells were grown in DMEM supplemented with 100 U/ml penicillin, 100 μg/ml streptomycin, 4 mM glutamine, 1 mM sodium pyruvate, 1% non-essential amino acids and 10% heat-inactivated fetal calf serum (FCS), and cultured at 37° C. in a humidified incubator in an atmosphere of 7% carbon dioxide and 93% air. Tumors of this cell line grown to 1 cm in diameter produce metastatic cells, mainly in the lungs.
# Reagents: Taxol (Mead Johnson Oncology Products, A Bristol-Myers Squibb, USA), obtained as a sterile nonpyrogenic solution containing 6 mg/ml paclitaxel, 527 mg/ml of purified Cremophor EL (polyoxyethylated castor oil) and 49.7% (v/v) dehydrated ethanol; and bleomycin (MegaPharm, Israel) were the anti cancer drugs used.
# Low-strength electric field enhanced cancer chemotherapy protocol: Mice were subjected to a single treatment of LEF-chemotherapy, once primary tumors reached 5 mm in diameter (about 60-70 mm^3) (11-17 days following subcutaneous tumor cell inoculation). Up to 100 μl of chemotherapeutic agents was injected into the tumor loci. The exposure to electric field was carried out as described above in Example 2 of the Examples section.
# Effect of LEFCT-EC using bleomycin or taxol on the survival of DA3 mammary adenocarcinoma bearing nice: BALB/c mice bearing DA3 mammary adenocarcinoma were treated by LEF-chemotherapy with intratumoral taxol (20 mg/kg) (FIG. 19) or bleomycin (30 U/kg) (FIG. 20) administration and their survival rate was compared with that of mice treated only with LEF or chemotherapy.
substance,measurement,setting,value
bleomycin,survival with bleomycin + LEF compared with LEF alone,"[1]; LEF 40 V/cm 12 min, 20 V/cm 12 or 20 min, all combinations tested",greatly enhanced
same,cure rate,"[1]; LEFCT-EC: drug + LEF 40 V/cm 12 min, 5 mm tumors",33%
same,tumor size with drug + LEF relative to drug only,[1]; after 21 days,less than half the size
same,survival rate,"[1]; bleomycin intratumoral + LEF 40 V/cm 12 min, after 60 days, unchanged until day 120",33%
same,time after which half the mice died,"[1]; drug alone, no LEF, intratumoral injection (5-FU intratumoral or intravenous), 5 mm tumors",about 51 days
same,"survival time, Mean",[2]; LEF-chemotherapy with the drug,85.3
same,"survival time, Median",[2]; LEF-chemotherapy with the drug,64.5
same,cure rate,"[2]; LEF-chemotherapy, intratumoral taxol 20 mg/kg or bleomycin 30 U/kg, 180 days after tumor inoculation",30%
same,"survival time, Mean","[2]; drug alone, intratumoral",40.2
same,"survival time, Median","[2]; drug alone, intratumoral",37.5
